This note sets out measurements from patent publication US20080194606A1, “Pyrazolyl-Amino-Substituted Pyrimidines and Their Use in the Treatment of Cancer” (ASTRAZENECA, priority 2005, published 2008).

Structures are written as SMILES. pIC50: −log10 of the molar value.

The target of the experiment is T1, human Trk A kinase (Homo sapiens, UniProt P04629).
T1 construct: HIS; made in house; host or cells: SF9 insect cells
T1 sequence (P04629 442-796): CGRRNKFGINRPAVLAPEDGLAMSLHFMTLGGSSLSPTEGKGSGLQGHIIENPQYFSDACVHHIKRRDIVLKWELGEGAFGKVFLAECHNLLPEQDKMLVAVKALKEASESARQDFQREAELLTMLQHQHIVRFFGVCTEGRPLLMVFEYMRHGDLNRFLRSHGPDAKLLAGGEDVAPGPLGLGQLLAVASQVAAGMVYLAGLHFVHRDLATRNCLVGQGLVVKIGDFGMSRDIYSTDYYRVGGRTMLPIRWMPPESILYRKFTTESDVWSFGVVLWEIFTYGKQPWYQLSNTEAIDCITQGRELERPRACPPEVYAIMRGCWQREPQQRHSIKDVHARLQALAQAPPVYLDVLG
In words: Trk A Assay (Alphascreen kinase assay). It counts as biochemical. As to conditions: 70 μM ATP, 20 minutes, room temperature, read-out: IC50 (Trk inhibitory activity). As to the method:
Trk A kinase activity was measured for its ability to phosphorylate synthetic tyrosine residues within a generic polypeptide substrate using an Amplified Luminescent Proximity Assay (Alphascreen) technology (PerkinElmer, 549 Albany Street, Boston, Mass.).
To measure Trk A kinase activity, the intracellular domain of a HIS-tagged human Trk A kinase (amino acids 442-796 of Trk A, Swiss-Prot Primary Accession Number P04629) was expressed in SF9 cells and purified using standard nickel column chromatography. After incubation of the kinase with a biotinylated substrate and adenosine triphosphate (ATP) for 20 minutes at room temperature, the kinase reaction was stopped by the addition of 30 mM ethylenediaminetetraacetic acid (EDTA). The reaction was performed in 384 well microtitre plates and the reaction products were detected with the addition of strepavidin coated Donor Beads and phosphotyrosine-specific antibodies coated Acceptor Beads using the EnVision Multilabel Plate Reader after an overnight incubation at room temperature.
(In general: In Alpha technology, singlet oxygen from a donor bead excites a nearby acceptor bead.)
Consider `C[C@H](Nc1nc(Nc2cc(C3CC3)[nH]n2)ncc1C#N)c1ccc(F)cc1` [Example 4, 2-[(5-Cyclopropyl-1H-pyrazol-3-yl)amino]-4-{[(1S)-1-(4-fluorophenyl)ethyl]amino}pyrimidine-5-carbonitrile], for which the pIC50 (usually the negative decadic logarithm of the IC50, by convention in mol/L) was 7.44. Regarding `Cc1cnc(Nc2cc(C3CC3)[nH]n2)nc1N[C@@H](CO)c1ccc(F)cc1` [Example 5, (2R)-2-({2-[(5-Cyclopropyl-1H-pyrazol-3-yl)amino]-5-methylpyrimidin-4-yl}amino)-2-(4-fluorophenyl)ethanol], the pIC50 was 6.97. As for `Cc1cc(Nc2ncc(Cl)c(N[C@@H](CO)c3ccc(F)cc3)n2)n[nH]1` [Example 7, (2R)-2-({5-Chloro-2-[(5-methyl-1H-pyrazol-3-yl)amino]pyrimidin-4-yl}amino)-2-(4-fluorophenyl)ethanol], the negative-log IC50 (pIC50) is 5.40.
